Measured values as given in patent US11786500B2, “Glutaminase inhibitor therapy” (Board of Regents, The University of Texas System, priority 2017, dated 2023).
“Also recorded” adds a separate entry of the source. Where two headings read alike, the source gives them in different places.

How the values were obtained:
OVCAR8 [1] = assay: Cell viability / proliferation assay (Cell Titer Glo, 72 h); format: cell-based
Protocol: Cells were allowed to settle and attach overnight. Cells plated in triplicate for each concentration and control examined. […] Cells were incubated with compound or relevant controls for 72 hours. On Day 4, 72 hours after treatment, cells were analyzed by Cell Titer Glo (PromegaG7573) per manufacturer's instructions. Plates were read in luminescence mode on a PheraStarFS plate reader. Data was collected, replicates were averaged, standard deviations calculated and analyzed through nonlinear regression analysis with four (4) parameters to generate IC50s for each cell line tested.

OVCAR429 [2] = assay: as above; format: cell-based
A2780 = assay: as above; format: cell-based
Description: (§1) Cells were allowed to settle and attach overnight.

IGROV1 = assay: as above; format: cell-based
Description: as §1

OVCAR4 [3] = assay: as above; format: cell-based
Description: as §1

OVCAR420 [4] = assay: Analysis of glutathione levels (GSH-Glo); format: cell-based; conditions: OVCAR420, 1 μM, 24 hours
Protocol: (§2) Analysis of Glutathione Levels: Cells were plated in 96-well Corning Costar 3603 at 10,000 cells/well on Day 0. Cells were allowed to settle and attach overnight. […] Cells were incubated with compound or relevant controls for 24 hours. On Day 2, 24 hours after treatment, cells were analyzed by GSH-Glo (PromegaV6912) per manufacturer's instructions. […] Duplicate wells were plated and then stained with crystal violet in order to correct for differences in cell growth as described below.
(§3) GLS-dependence is driven by addiction to glutamine-dependent, glutathione-mediated redox maintenance in OVCA responder cell lines. […] Consistent with this hypothesis, GLS-1 inhibition induced a significant decrease in intracellular glutathione and a concurrent increase in reactive oxygen species (FIGS. 7 and 8) in responder lines.

OVCAR429 [5] = assay: Analysis of glutathione levels (GSH-Glo); format: cell-based; conditions: OVCAR429, 1 μM, 24 hours
Protocol: as §2, §3

OVCAR4 [6] = assay: Analysis of glutathione levels (GSH-Glo); format: cell-based; conditions: OVCAR4 (non-responder), 24 hours
Protocol: as §2, §3

OVCAR8 [7] = assay: Analysis of glutathione levels (GSH-Glo); format: cell-based; conditions: OVCAR8, 1 μM, 24 hours
Protocol: as §2, §3

[8] = system: responder cells OVCAR420, OVCAR429; assay: Analysis of reactive oxygen species production (CM-H2DCFDA, flow cytometry); format: cell-based; conditions: 1 μM, 48 hours
Protocol: One day prior to the experiment, OVCAR-8 and OVCAR420 cells were seeded in 6 well dishes (250,000 cells per well). […] The following day, an allocated well was treated with hydrogen peroxide for 20-30 minutes as a positive control for ROS generation. All wells were then stained with CM-H2DCFDA (5 μM, Life Technologies) for 30 minutes at 37° C., washed with 1×PBS, harvested by trypsinization, and re-suspended in 400 μl phenol-free RPMI medium. Cells were strained through a […] cell strainer and analyzed using a flow cytometer (LSR Fortessa).
For each condition, calculation of mean fluorescence intensity allows for the comparison of ROS accumulation between control and treated samples. Shown are responder cells: (a) OVCAR420; (b) OVCAR429, with GFP-A on the x-axis, and count on the y-axis.

[9] = system: OVCAR8 and OVCAR420 cells; assay: DNA damage staining and quantification (γH2AX foci); format: cell-based; conditions: 48 hours
Protocol: Cells were then fixed using 4% Paraformaldehyde and permeabilized using 0.5% TritonX100. Fixed cells were stained with Anti-γH2AX, rabbit (Bethyl IHC-00059) (1:500) for 2 h at 37 C. The secondary antibody used was Alexa Fluor 546 donkey anti-rabbit (Invitrogen A10040) (1:150) simultaneously with Hoechst 33342, Trihydrochloride, Trihydrate (Invitrogen, H3570) (1:1000) for 1 h at 37 C. DNA damage was measured as a γH2AX signal per nucleus using PerkinElmer High Content Screening System Operetta with the Harmony software. First, nuclei were selected using Hoechst staining. Then, single cells were gated based on nucleus size and shape. Apoptotic and mitotic cells were excluded based on maximum Hoechst intensity in the nucleus. DNA damage foci were identified within the gated nuclei using the “find spots in Alexa 546 channel” analysis block. Finally, the total intensity of Alexa 546 within all “spots” in the nucleus, or the total number of spots in the nucleus, averaged per cell, was calculated.
GLS-1 inhibition induces oxidative stress that leads to accumulation of DNA damage. […] Moreover, we observed an accumulation of γH2AX foci, a marker of DNA damage, and the likely cause of anti-proliferative effects observed upon GLS-1 inhibition (FIG. 11).

[10] = system: OVCAR8, OVCAR429, OVCAR4, and IGROV1 cells; assay: Metabolomics (LC-MS/MS metabolic profiling); format: cell-based; conditions: 1 μM, 24 hours; muted or absent in non-responder lines
Protocol: OVCAR8 cells were plated at 3×10^6 cells per 10 cm dish and OVCAR429, IGROV1, and OVCAR4 were plated at 3.5×10^6 cells per 10 cm dish 24 hours (24 h) prior to treatment. […] On day 1 (d.1), 2 hours (2 h) prior to harvest, samples were washed with 5 mL media containing 10% dialyzed FBS. 10 mL of media was added to plates and plates were returned to the incubator for 2 h. Media was then aspirated from plates and 4 mL of 80% chilled MeOH (−80° C.) was immediately added. Plates were incubated at −80° C. for 15 minutes. Cells were then scraped with cell scraper to release cells while keeping plates on dry ice. The MeOH/cell lysate mixture was collected and transferred to conical tubes on dry ice. Tubes were centrifuged at full speed in 4° C. chilled centrifuge for 5 minutes. Supernatant was transferred to another set of conical tubes on dry ice by decanting. The remaining pellet was re-suspended in 500 μL of cold MeOH and the mixture was moved to a microcentrifuge tube. Microfuge tubes were spun at full speed for 5 minutes in 4° C. chilled microcentrifuge. […]
Differentially abundance analysis of metabolite levels was carried out using a moderated t-test function from Bioconductor's limma package (Smyth 2005). […] The normalization factor was calculated by first defining a vector, Nmed, to be the median peak area for each metabolite across a set of samples. […]

OVCAR420 [11] = assay: cells
Protocol: Cell culture media: All cells were grown in RPMI-1640 (Gibco11875-119) with 2 mM Glutamine+10% FBS (Gibco16000-044) unless otherwise noted.
Cells were plated in black, 96-well Corning Costar 3603 at densities to allow for Log phase growth throughout the experiment (see table below) on Day 0. Cells were allowed to settle and attach overnight. Cells plated in triplicate for each concentration and control examined. […] Cells were incubated with compound or relevant controls for 72 hours. On Day 4, 72 hours after treatment, cells were analyzed by Cell Titer Glo (PromegaG7573) per manufacturer's instructions. Plates were read in luminescence mode on a PheraStarFS plate reader. Data was collected, replicates were averaged, standard deviations calculated and analyzed through nonlinear regression analysis with four (4) parameters to generate IC50s for each cell line tested.

[12] = system: OVCAR-8 subcutaneous xenografts; assay: OVCAR-8 subcutaneous xenograft; format: in vivo, athymic mice; conditions: 100 mpk, twice a day, oral gavage, three weeks
Protocol: OVCAR-8 cells were implanted subcutaneously into athymic mice and allowed to grow into an established tumor. Animals were then treated with compound 2, for three weeks (100 mpk, twice a day) by oral gavage.

SK-OV-3 cells = assay: Orthotopic model of ovarian cancer (SK-OV-3, intraperitoneal); format: in vivo, athymic nude mice; conditions: day 21; compared to vehicle or paclitaxel alone
Protocol: SK-OV-3 cells were injected into the intraperitoneal cavity of athymic nude mice and allow to grow for 7 days. At day 7, animals were treated with the in vivo tool compound to inhibit GLS-1 and animals were monitored for clinical disease signs.

OVCAR-8 tumors = assay: Glutamate:glutamine ratio in OVCAR-8 tumor lysates (mass spec); format: in vivo; conditions: dosed for 1, 7 or 21 days
Protocol: OVCAR-8 tumors were dosed for 1, 7 or 21 days and then harvested from animals. Tumor lysates were analyzed by mass spec for the presence of glutamine and glutamate.

[13] = system: ASNSlow HGSOC patient-derived xenograft; assay: ASNSlow HGSOC patient-derived xenograft (PDX) model; format: in vivo, NOD/SCID mice; conditions: orally 100 mg/kg, BID for 39 days; p<0.0001 vs vehicle control
Protocol: The the anti-tumor effects of Compound 2 were tested in vivo in an ASNS^low HGSOC patient-derived xenograft (PDX) model using human tumor tissue that was identified through immunohistochemistry to be ASNS^low and characterized through histological phenotyping to be of a high-grade serous subtype, implanted in to NOD/SCID mice.
Compound 2 inhibits tumor growth of an ASNS^low PDX xenograft as a single agent in NOD/SCID mice (FIG. 23(b)). In this experiment, Compound 2, administered orally at a dose of 100 mg/kg, BID for 39 days inhibited tumor growth (TGI=50%, p<0.0001 for tumor volumes after treatment with Compound 2 vs vehicle control).

| SMILES | IC50 (OVCAR8 [1]; Homo sapiens, OVCAR-8, OVCAR8, 72 h, read-out: IC50, viability (relative to DMSO)) | response, 72 hour viability (OVCAR8 [1]; OVCAR8) | IC50 (OVCAR429 [2]) | response, 72 hour viability (OVCAR429 [2]; OVCAR429) | IC50 (OVCAR429 [2]; OVCAR429, 72 h, read-out: IC50, viability (relative to DMSO)) | response, viability (A2780) | response, 72 hour viability (IGROV1) | response, viability (OVCAR4 [3]) | GSH levels (OVCAR420 [4]) | GSH levels (OVCAR429 [5]) | GSH levels (OVCAR4 [6]) | GSH levels (OVCAR8 [7]) | accumulation of intracellular ROS [8] | DNA damage (γH2AX foci per nuclei) [9] | changes in metabolite levels [10] | IC50 (OVCAR420 [11]) | tumor growth (tumor volume) [12] | combined nodule weight per animal (SK-OV-3 cells) | glutamate:glutamine ratio in tumors (OVCAR-8 tumors) | TGI (tumor growth inhibition) [13] |
| --- | --- | --- | --- | --- | --- | --- | --- | --- | --- | --- | --- | --- | --- | --- | --- | --- | --- | --- | --- | --- |
| O=C(Cc1cccc(OC(F)(F)F)c1)Nc1ccc(CCCCc2nnc(NC(=O)Cc3ccccn3)s2)nn1 [Compound 1, 2-(pyridin-2-yl)-N-{5-[4-(6-{2-[3-(trifluoromethoxy)phenyl]acetamido}pyridazin-3-yl)butyl]-1,3,4-thiadiazol-2-yl}acetamide] | 13 nM | nM sensitivity | 76 nM | nM sensitivity | 59 nM | no response | resistant | resistant; also recorded: no response | significantly decreased | significantly decreased | does not show a significant decrease | significantly decreased | induces an accumulation of ROS | induces DNA damage | decrease in TCA cycle activity | 59 nM | – | – | – | – |
| CNC(=O)c1cn(C[C@H](F)CCc2ccc(NC(=O)Cc3cc(OC4CC(F)(F)C4)cc(C)n3)nn2)nn1 [Compound 2, (R)-1-(4-(6-(2-(4-(3,3-difluorocyclobutoxy)-6-methylpyridin-2-yl)acetamido)pyridazin-3-yl)-2-fluorobutyl)-N-methyl-1H-1,2,3-triazole-4-carboxamide] | – | – | – | – | – | – | – | – | – | – | – | – | – | – | – | – | significant tumor growth inhibition | robust reduction | altered glutamine metabolism | 50% |
